The values below come from ChEMBL document CHEMBL1150186, “Chemical studies on Mexican plants used in traditional medicine, XV. Sesquiterpene evoninoate alkaloids from Hippocratea excelsa” (J Nat Prod, 1990).

The term LC50 denotes the concentration that kills 50% of the test population. The low end stands for greater toxicity, the high end for lower toxicity.

For one data set, the system named is HT-29. In words: Cytotoxicity against human HT-29 cells. In kind it is functional. To be noted: read-out: ED50 (the source's name).
Data set [1] in a line: Cytotoxicity against mouse 9PS cells. In kind it is functional. The settings on record: read-out: ED50 (the source's name).
The nature of data set [2]: Toxicity against brine shrimp. In kind it is organism-based. The settings on record: artemia, in vivo.
The test system of another data set is A549. In words: Cytotoxicity against human A549 cells. In kind it is functional. The settings on record: read-out: ED50 (the source's name).
The test system of the next data set is MCF7. In words: Cytotoxicity against human MCF7 cells. In kind it is functional. To be noted: read-out: ED50 (the source's name).

In brackets after ≈: the same amount, converted by molar mass. Bounds are passed on as bounds.

On to `CC(=O)OC[C@]12[C@H](OC(C)=O)[C@H](OC(C)=O)C3C(OC(C)=O)[C@@]14O[C@@]3(C)COC(=O)c1cccnc1[C@@H](C)[C@H](C)C(=O)OC([C@H](OC(=O)c1ccc(=O)n(C)c1)[C@@H]2OC(=O)c1ccccc1)[C@]4(C)O` (stereo not given in full) [HIPPOCRATEINE], for which the EC50 in the data set with HT-29 was > 10 µg/mL; in data set [1], 0.185 µg/mL (≈ 0.193 µM); in the data set on A549 it was > 10 µg/mL; in the data set with MCF7, > 10 µg/mL. The LC50 in data set [2] is 212 µg/mL (≈ 221 µM).
